# Source: patent US9265268B2, “Method of handling bananas” (priority 2009, dated 2016)
# Experiments:
# [1] = test system: bananas; experiment: Example 2C: evaluation process C (22° C. after MCP); crown mold and crown rot; format: in vivo, Musa; conditions: 7 days in bag at approx. 22° C., rating 0-3
# From the text: Bananas may be inspected for the incidence of crown mold. Crown mold is observed and given a numerical rating as follows: 0 (apparently healthy and disease-free fruit); 1 (mycelia not easily detectable with naked eye, but obvious slight disease is visible on the crown); 2 (presence of some visible mycelia on the crown and moderate disease damage on the crown; 3 (clearly visible mycelia on the crown with severe disease damage on the crown).
# Bananas may be inspected for the incidence of crown rot. When disease damage is apparent but no fungus is visible, crown rot is reported, with the degree of damage assessed as follows: 0 (apparently healthy and disease-free fruit); 1 (obvious slight disease is visible on the crown); 2 (moderate disease damage on the crown; 3 (severe disease damage on the crown).
# Bananas were harvested at 13 weeks of age. Fruit bunches were separated into hands, then washed, and excess latex was removed in chlorinated water tanks using standard commercial practices. The washed hands of bananas were further broken into clusters and treated with fungicide. Clusters were placed into plastic bags; each bag held approximately 1.4 kg (3 lbs) of bananas. The bananas remained in these bags until they were removed for evaluation (see below).
# At day 5 at approximately 4 pm, the bananas had reached color stage 2.5 to 3.5. Treatment groups PE-3-C, PE-10-C, MAP-3, and MAP-10 were then exposed to 1-MCP overnight at the concentrations shown above.
# Some of the bananas from each group described in Example 2 were evaluated by process “C” as follows: After treatment groups PE-3-C, PE-10-C, MAP-3, and MAP-10 received exposure to 1-MCP, the bananas remained in their bags and were held at approximately 22° C. The bananas were inspected daily while they remained in the bags.
# After 7 days at approximately 22° C., results were as follows: […]
# [2] = test system: bananas; experiment: Example 1: bananas bagged at harvest, shipped, ethylene-ripened, exposed 12 hr to MCP, stored at approx. 20° C.; sugar spots, color, shelf life; format: in vivo, Musa; design: key to Sugar Spot Ratings: 0 = no spots, 1 = few, 2 = moderate, 3 = severe spots (group average)
# From the text: Each cluster of bananas was rated daily for sugar spots. Clusters were rated using the following scale:
# 0=no spots; 1=few spots; 2=moderate spots; 3=severe spots
# Clusters with rating of 0-1 are commercially desirable to consumers. Clusters with ratings of 2-3 are unacceptable to consumers. In the results below, the average rating for all the clusters in a given treatment group is reported.
# The color of banana peels is rated according to a seven stage rating scale: stage 1 (dark green); stage 2 (all light green); stage 3 (half green and half yellow); stage 4 (more yellow than green); stage 5 (green tips and necks); stage 6 (all yellow; maybe light green necks, no green tips); stage 7 (yellow flecked with brown). Consumers generally prefer to eat bananas in stage 5 or stage 6.
# Bananas were harvested in Columbia and placed in bags. Three types of bags were used: • (1) non-MAP polymeric film bag, sized to hold 18 kg of bananas (“poly liner”). Each bag has two or more holes, each with diameter of approximately 20 mm or larger. • (2) non-MAP polymeric film bag with 44 large holes (hole diameter 10 mm), sized to hold 1.4 kg of bananas (“T-bag”); and • (3) MAP bag (as described above), sized to hold about 1.4 kg of bananas.
# The appropriate weight of bananas was placed in each type of bag after harvest and prior to shipment. Bags were placed in standard cardboard carrying devices. Bananas then were shipped to Philadelphia, Pa., where they were exposed to ethylene using a standard 4 day ripening schedule. Standard commercial methods of shipment and exposure to ethylene were used.
# The Test Protocol that was used was as follows. 312 MAP bags were packed. Each bag held approximately 1.4 kg (3 lb) of bananas. Thirteen such bags were packed in each box. Total weight of bananas in MAP bags was approximately 432 kg. Approximately 216 kg of bananas were placed into poly liners, which were placed into boxes identical to those used for the MAP bags. Approximately 216 kg of bananas were placed into T bags, which were placed into boxes identical to those used for the MAP bags. The gross fruit weight of the each box was approximately 19.5 kg (43 lb).
# Banana heads (industry nomenclature is rasimo) were harvested at 14 weeks of age (typical for US markets). Heads were cut into large, medium and small hands. The hands were washed in chlorinated water tanks. The washed hands were further broken into clusters. Clusters were packed into bags that each held approximately 1.4 kg (3 lb) or bags that each held approximately 18 kg (40 lb). Bags were placed into standard cardboard boxes, and each box held approximately 18-20 kg. Each box had 8 round holes of diameter 40 mm, plus two larger oval holes that also served as hand-holds for carrying.
# The MAP-packaged bananas were packaged as follows: Clusters of approximately 1.4 kg were carefully placed into microperforated bags, and the bags were sealed by twisting the open side of the bag, folding down the twisted end, and placing a rubber band around the twisted and folded end of the bag.
# All bananas were quickly cooled to 13.3° C. and held at that temperature for shipping. During shipping, air ventilation was approximately 15%.
# Bags were not opened during shipping or ripening. Temperature was monitored in some of the bags by placing a temperature probe in one banana in that bag prior to sealing.
# Bananas were ripened in forced-air ripening rooms as follows. On day 1, bananas were kept at 18° C. (64° F.) and exposed to exogenous ethylene (150 ppm for 24 hours). No further exogenous ethylene was used. After day 1, bananas were kept at 18° C. for two days and then at 10° C. for one day. The temperatures given are pulp temperatures and not room temperatures. Humidity was 85% to 95%.
# Bananas were then shipped to Spring House, Pa. Bananas arrived at color stage 2.5-3. The bananas were randomly divided into treatment sets as follows: […]
# [3] = MAP-10: MAP bag, 1000 ppb 1-MCP
# [4] = PE-10-C: PE bag, 1000 ppb 1-MCP
smiles,measurement,setting,value
"CC1=CC1 [1-MCP, 1-methylcyclopropene]",Crown Mold,"[1]; MAP-3: MAP bag, 300 ppb 1-MCP",1.04
same,Crown Rot,"[1]; MAP-3: MAP bag, 300 ppb 1-MCP",1.18
same,Crown Mold,[1]; [3],1.00
same,Crown Rot,[1]; [3],1.18
same,Crown Mold,"[1]; PE-3-C: PE bag, 300 ppb 1-MCP",1.50
same,Crown Rot,"[1]; PE-3-C: PE bag, 300 ppb 1-MCP",1.72
same,Crown Mold,[1]; [4],1.09
same,Crown Rot,[1]; [4],1.27
same,additional shelf life,[2]; 1-MCP alone (no MAP),1 to 2 days
same,Sugar Spot Ratings,"[2]; MAP, 300 ppb MCP, Day 0",0
same,Sugar Spot Ratings,"[2]; MAP, 300 ppb MCP, Day 1",0
same,Sugar Spot Ratings,"[2]; MAP, 300 ppb MCP, Day 2",0.00
same,Sugar Spot Ratings,"[2]; MAP, 300 ppb MCP, Day 3",0.19
same,Sugar Spot Ratings,"[2]; MAP, 300 ppb MCP, Day 4",0.53
same,Sugar Spot Ratings,"[2]; MAP, 300 ppb MCP, Day 5",0.92
same,Sugar Spot Ratings,"[2]; MAP, 300 ppb MCP, Day 6",1.61
same,Sugar Spot Ratings,"[2]; MAP, 1000 ppb MCP, Day 0",0
same,Sugar Spot Ratings,"[2]; MAP, 1000 ppb MCP, Day 1",0
same,Sugar Spot Ratings,"[2]; MAP, 1000 ppb MCP, Day 2",0.11
same,Sugar Spot Ratings,"[2]; MAP, 1000 ppb MCP, Day 3",0.22
same,Sugar Spot Ratings,"[2]; MAP, 1000 ppb MCP, Day 4",0.56
same,Sugar Spot Ratings,"[2]; MAP, 1000 ppb MCP, Day 5",1.56
same,Sugar Spot Ratings,"[2]; MAP, 1000 ppb MCP, Day 6",1.89
same,Sugar Spot Ratings,"[2]; T bags, 300 ppb MCP, Day 0",0
same,Sugar Spot Ratings,"[2]; T bags, 300 ppb MCP, Day 1",0
same,Sugar Spot Ratings,"[2]; T bags, 300 ppb MCP, Day 2",0
same,Sugar Spot Ratings,"[2]; T bags, 300 ppb MCP, Day 3",0.94
same,Sugar Spot Ratings,"[2]; T bags, 300 ppb MCP, Day 4",2.44
same,Sugar Spot Ratings,"[2]; T bags, 300 ppb MCP, Day 5",2.78
same,Sugar Spot Ratings,"[2]; T bags, 1000 ppb MCP, Day 0",0
same,Sugar Spot Ratings,"[2]; T bags, 1000 ppb MCP, Day 1",0
same,Sugar Spot Ratings,"[2]; T bags, 1000 ppb MCP, Day 2",0
same,Sugar Spot Ratings,"[2]; T bags, 1000 ppb MCP, Day 3",0.44
same,Sugar Spot Ratings,"[2]; T bags, 1000 ppb MCP, Day 4",2.06
same,Sugar Spot Ratings,"[2]; T bags, 1000 ppb MCP, Day 5",2.61
same,visual quality maintained beyond the standard handling method,[2]; combined treatment 1-MCP and MAP,10 days
same,Sugar Spot Ratings,"[2]; poly liner, 300 ppb MCP, Day 0",0
same,Sugar Spot Ratings,"[2]; poly liner, 300 ppb MCP, Day 1",0
same,Sugar Spot Ratings,"[2]; poly liner, 300 ppb MCP, Day 2",0.06
same,Sugar Spot Ratings,"[2]; poly liner, 300 ppb MCP, Day 3",0.33
same,Sugar Spot Ratings,"[2]; poly liner, 300 ppb MCP, Day 4",2.17
same,Sugar Spot Ratings,"[2]; poly liner, 300 ppb MCP, Day 5",2.89
same,Sugar Spot Ratings,"[2]; poly liner, 1000 ppb MCP, Day 0",0
same,Sugar Spot Ratings,"[2]; poly liner, 1000 ppb MCP, Day 1",0
same,Sugar Spot Ratings,"[2]; poly liner, 1000 ppb MCP, Day 2",0.00
same,Sugar Spot Ratings,"[2]; poly liner, 1000 ppb MCP, Day 3",0.33
same,Sugar Spot Ratings,"[2]; poly liner, 1000 ppb MCP, Day 4",2.67
same,Sugar Spot Ratings,"[2]; poly liner, 1000 ppb MCP, Day 5",2.89
